# According to article PMC6881182 (Nature microbiology, 2019):
# T1: RgNanA (RUMGNA_02692), sialic acid aldolase (Mediterraneibacter gnavus, UniProt A7B555, K177A)
# T1 sequence (A7B555 11-315 K177A): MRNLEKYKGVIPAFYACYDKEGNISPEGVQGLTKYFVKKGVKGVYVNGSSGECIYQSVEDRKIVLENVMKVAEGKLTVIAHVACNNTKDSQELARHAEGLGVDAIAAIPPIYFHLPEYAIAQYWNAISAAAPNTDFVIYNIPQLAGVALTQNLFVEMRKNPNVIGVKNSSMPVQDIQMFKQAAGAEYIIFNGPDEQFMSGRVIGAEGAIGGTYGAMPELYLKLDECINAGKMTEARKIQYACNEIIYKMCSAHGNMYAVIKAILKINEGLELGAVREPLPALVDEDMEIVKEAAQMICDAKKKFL
# B1: RgNanA (RUMGNA_02692), sialic acid aldolase (Mediterraneibacter gnavus ATCC 29149) (protein)
# chain: MAFMKQRSKTMRNLEKYKGVIPAFYACYDKEGNISPEGVQGLTKYFVKKGVKGVYVNGSSGECIYQSVEDRKIVLENVMKVAEGKLTVIAHVACNNTKDSQELARHAEGLGVDAIAAIPPIYFHLPEYAIAQYWNAISAAAPNTDFVIYNIPQLAGVALTQNLFVEMRKNPNVIGVKNSSMPVQDIQMFKQAAGAEYIIFNGPDEQFMSGRVIGAEGAIGGTYGAMPELYLKLDECINAGKMTEARKIQYACNEIIYKMCSAHGNMYAVIKAILKINEGLELGAVREPLPALVDEDMEIVKEAAQMICDAKKKFL
# Columns and labels:
# [1] = molecular target: T1, RgNanA (RUMGNA_02692), sialic acid aldolase; test: X-ray crystal structure; type: binding
# [2] = molecular target: EcNanA (E. coli Neu5Ac lyase/aldolase) (Escherichia coli, UniProt P0A6L4); test: lactate dehydrogenase-coupled aldolase assay; type: biochemical
# [3] = test system: CC(=O)N[C@H]1[C@H]2O[C@@](C(=O)O)(C[C@@H]1O)O[C@@H]2[C@H](O)CO; test: purified protein; conditions: NAD+ or NADH
# [4] = molecular target: RgNanOx (RUMGNA_02695), oxidoreductase (Mediterraneibacter gnavus, UniProt A7B558); test: HPLC of DMB-labelled product with and without cofactor; type: biochemical
# [5] = substrate: CC(=O)N[C@@H]1[C@@H](O)CC(O)(C(=O)O)O[C@H]1C(O)C(O)CO; test: purified protein
molecule,measurement,setting,value
CC(=O)N[C@@H]1[C@@H](O)CC(O)(C(=O)O)O[C@H]1C(O)C(O)CO (stereo partly drawn) [Neu5Ac],X-ray crystal structure (5 mM Neu5Ac soak of inactive mutant),[1],"complex between an inactive mutant, RgNanA K167A, and Neu5Ac showed Neu5Ac in the open-chain ketone form"
same,lactate dehydrogenase-coupled aldolase assay (control enzyme),[2],RgNanA and EcNanA (E. coli Neu5Ac lyase/aldolase used as a control) showed activity against Neu5Ac
"RgNanOx (RUMGNA_02695), oxidoreductase (Mediterraneibacter gnavus ATCC 29149)",Km,[3],74 ± 14 µM
NC(=O)c1ccc[n+]([C@@H]2O[C@H](COP(=O)([O-])OP(=O)(O)OC[C@H]3O[C@@H](n4cnc5c(N)ncnc54)[C@H](O)[C@@H]3O)[C@@H](O)[C@H]2O)c1 [NAD^+],HPLC of DMB-labelled product with and without cofactor (500 μM),[4],"Neu5Ac was produced in the presence of NAD^+ or NADH, but not in the presence of FAD"
NC(=O)C1=CN([C@@H]2O[C@H](COP(=O)(O)OP(=O)(O)OC[C@H]3O[C@@H](n4cnc5c(N)ncnc54)[C@H](O)[C@@H]3O)[C@@H](O)[C@H]2O)C=CC1 [NADH],HPLC of DMB-labelled product with and without cofactor (500 μM),[4],"Neu5Ac was produced in the presence of NAD^+ or NADH, but not in the presence of FAD"
B1,Km,[5],1473 ± 98 µM
